From US7582725B2, “Agents, which inhibit apoptosis in cells that are involved in wound healing” (Dermatools Biotech GmbH, priority 2001, dated 2009)

Key:
Assay type in all cases: cell-based
[1] = system: MRC-5 fibroblasts; assay: Incubation of fibroblasts with anti-apoptotic peptides: TSP-1 induced apoptosis, DAPI staining; conditions: 24 h; for Inhibition index [%]: 100−(measured apoptosis index*100/control apoptosis index), 1 μg/ml TSP-1 + peptide 1 mM; for Apoptosis index [%]: static, fresh medium with 1 μg/ml TSP-1 + peptide 1 mM, 3 independent experiments, average ± SD
Method: The cells are cultivated under static culture conditions as in example 1/variant 1B1. The cells are seeded in the appropriate culture vessels (e.g. 24-well plate/0.5 ml per well) and employed for the test 3 days after complete confluence is reached. The cells are provided with new medium: • (a) fresh culture medium [basic rate of apoptosis] • (b) fresh culture medium with 1 μg/ml TSP-1 [apoptosis-inducing substance; control] • (c) culture medium (b)+peptide of SEQ ID NO 1; 1 mM • (d) culture medium (b)+peptide of SEQ ID NO 2; 1 mM • (e) culture medium (b)+peptide of SEQ ID NO 3; 1 mM • (f) culture medium (b)+peptide of SEQ ID NO 4; 1 mM • (g) culture medium (b)+peptide of SEQ ID NO 7; 1 mM • (h) culture medium (b)+peptide of SEQ ID NO 8; 1 mM • (i) culture medium (b)+peptide of SEQ ID NO 9; 1 mM • (j) culture medium (b)+peptide of SEQ ID NO 10; 1 mM • (k) culture medium (b)+peptide of SEQ ID NO 11; 1 mM • (l) culture medium (b)+peptide of SEQ ID NO 5; 1 mM • (m) culture medium (b)+peptide of SEQ ID NO 6; 1 mM
After incubation under culture conditions (example 1) for 24 h, the cells are fixed, stained with DAPI and examined morphologically under the fluorescence microscope. The apoptotic cells and the total number of cells are determined, and the apoptosis index is calculated (percent of apoptotic cells). The data from 3 independent experiments are indicated in the following table, indicating the averages and the standard deviation.
The inhibition index of the peptides employed is calculated as follows:
Inhibition index [%]=100−(measured apoptosis index* 100/control apoptosis index)

[2] = system: MRC-5 fibroblasts; assay: Tension-dependent apoptosis of MRC-5 fibroblasts in collagen matrices (relaxed), DAPI staining; conditions: relaxed collagen matrix
Method: 2×10^5 cells are seeded in each collagen matrix. For this purpose, 100 μl of the cell suspension (the appropriate cell titer is adjusted after the trypsinization in serum-free DMEM) are introduced into 1.5 ml reaction vessels pre-equilibrated at 37° C., 100 μl of the neutralized collagen solution are added, and the resulting solution is incubated at 37° C. for 4 min. The collagen concentration is 1.5 mg/ml. The cell/collagen suspension is seeded in 24-well cell culture plates or in 3.5 cm culture dishes. The matrix is polymerized at 37° C. for 60 min.
The matrices are covered with a layer of culture medium (DMEM+10% FCS+50 μg/ml ascorbic acid) and cultivated in an incubator at 37° C. and 8.5% by volume CO2 in a water vapor-saturated air atmosphere for 24 h.
The adherent matrix is cautiously detached with a spatula from the substrate and “floats” in the culture medium without contact with the substrate. The tension is abolished. The cultivation takes place for the period stated in each case.
The cells are cultivated as stated in example 11. Day “0” corresponds to the time after 24 h cultivation with ascorbic acid-containing medium before further cultivation under tensioned or relaxed conditions. After the stated times, the cell/collagen matrix is fixed in 4% (w/v) paraformaldehyde in PBS, followed by DAPI staining. […]

[3] = system: MRC-5 fibroblasts; assay: Rate of apoptosis of dynamically cultivated MRC-5 fibroblasts (cone and plate shear apparatus), DAPI staining
Method: The fibroblasts are initially cultivated under static conditions until confluence is reached. This is followed by cultivation under dynamic conditions in the cone and plate shear apparatus (after Bussolori et al. (1982) Rev. Sci. Instrum. 53, 1851-1854) for 24 h.
This is done by precultivation of the cells initially in gelatinized culture dishes (◯=35 mm) with 0.15 ml/cm^2 culture medium and then further cultivation under turbulent or laminar flow conditions in the cone and plate shear apparatus for a maximum of 24 h. The flow conditions result from the angle of the cone. The flow over the cells is turbulent at a cone angle of 5° and is laminar at a cone angle of 0.5°.
Before use, the cone and plate shear apparatus is cleaned with a soft cloth and 70% (v/v) ethanol, the cone is sterilized and the apparatus is equilibrated at 37° C. in a heating cabinet. […]
The culture supernatant from a Petri dish is aspirated off, and the cell lawn is fixed with 1 ml of formaldehyde solution on ice for 15 minutes, washed twice with 2 ml of PBS, treated with 0.5 ml of DAPI solution for 15 minutes, washed with PBS and evaluated under the fluorescence microscope. […] 500-1 000 cells are selected at random, and the cells with apoptotic nuclei are counted. […]

[4] = system: MRC-5 fibroblasts; assay: Rate of apoptosis of statically cultivated MRC-5 fibroblasts, DAPI staining; conditions: for Apoptosis [%]: static, 24 h, substance in fresh medium, or conditioned medium alone
Method: The MRC-5 cell line used is seeded in ungelatinized cell culture vessels. The subsequent cultivation takes place in an incubator at 37° C. and 5% by vol. CO2 in a water vapor-saturated atmosphere. The culture medium is changed every second to third day and, after confluence is reached, the cells are passaged with a division rate from 1:5 to 1:10.
The culture supernatant from a Petri dish is aspirated off, and the cell lawn is fixed with 1 ml of formaldehyde solution on ice for 15 minutes, washed twice with 2 ml of PBS, treated with 0.5 ml of DAPI solution for 15 minutes, washed with PBS and evaluated under the fluorescence microscope. The UV filter set and a 20× or 40× objective are used. 500-1 000 cells are selected at random, and the cells with apoptotic nuclei are counted.
The apoptosis index is calculated by the following formula: […]
The used culture medium from a confluent MRC-5 fibroblast culture is removed, and the cell lawn is washed once with culture medium and cultivated under the stated conditions for 24 h.
The used culture medium from a confluent culture is removed, and the cell lawn is washed once with culture medium and cultivated under the stated conditions for 24 h.

Molecule	Inhibition index [%] [1]	Apoptosis index [%] [1]	other results
K-R-E-Y-V-V-M-W-K-K (KREYVVMWKK) [SEQ ID NO 6]	94.4 ± 4.2%	0.24 ± 0.18%	–
R-Y-Y-V-V-M (RYYVVM) [SEQ ID NO 3]	65.3 ± 0.9%	1.45 ± 0.04%	–
R-N-Y-V-V-M (RNYVVM) [SEQ ID NO 10]	13.5 ± 16.2%	3.70 ± 1.11%	–
R-M-Y-V-V-M (RMYVVM) [SEQ ID NO 8]	42.8 ± 6.9%	2.46 ± 0.29%	–
K-R-A-Y-V-V-M-W-K-K (KRAYVVMWKK) [SEQ ID NO 5]	90.1 ± 4.9%	0.42 ± 0.21%	–
R-T-Y-V-V-M (RTYVVM) [SEQ ID NO 9]	25.4 ± 11.8%	3.19 ± 0.50%	–
R-G-Y-V-V-M (RGYVVM) [SEQ ID NO 7]	53.7 ± 13.9%	2.00 ± 0.59%	–
R-A-Y-V-V-M (RAYVVM) [SEQ ID NO 1]	71.4 ± 6.8%	1.21 ± 0.29%	–
R-E-Y-V-V-M (REYVVM) [SEQ ID NO 4]	80.4 ± 7.0%	0.87 ± 0.32%	–
R-D-Y-V-V-M (RDYVVM) [SEQ ID NO 11]	38.9 ± 16.7%	2.66 ± 0.71%	–
CO[C@@H]1C(=O)O[C@H](C)[C@H](C)/C=C(\C)C[C@H](C)C(=O)N[C@@H](C)C(=O)N(C)[C@H](Cc2c[nH]c3ccccc23)C(=O)N[C@H]1c1ccc(O)cc1 [chondramide A, reference compound]	–	–	Apoptosis [%] ([2]; Example 14, 1 μM for 1 h before detachment, 8 h further cultivation): 1.0 ± 0.2%
thrombospondin 1 [TSP-1]	–	–	Apoptosis [%] ([2]; Example 13, DMEM/FCS + substance, 24 h, antibodies 50 μg/ml, Tsp1 20 μg/ml): 10.5 ± 0.5%; Apoptosis [%] ([3]; dynamic cultivation, 24 h, conditioned medium alone or fresh medium + TSP-1): 0.4 ± 0.1%; Effect on apoptosis of dynamic fibroblast cell culture (in words) ([3]; dynamic culture): no effect on apoptosis; Apoptosis [%] ([4]; Example 6): 5.6 ± 0.2%; Apoptosis [%] ([4]; Example 7): 5.6 ± 0.2%; Effect on apoptosis of statically cultivated fibroblasts (in words) ([4]; static culture): increase in spontaneous apoptosis
R-W-Y-V-V-M (RWYVVM) [SEQ ID NO 2]	53.7 ± 6.8%	2.00 ± 0.29%	–
